One test concerns the target prolylendopeptidase (Elizabethkingia meningoseptica, UniProt P27028). In words: biochemical. It is filed as biochemical. The following applies: substrate 2.5 mM Z-glycyl-proline-β-naphthylamide; pH 7.0; 35° C. for 10 minutes; read-out: inhibition constant (Ki). Here is the method:
The compounds of the invention obtained in the foregoing Examples were assayed for their prolylendopeptidase inhibition activity. This assay for prolylendopeptidase inhibition was carried out in accordance with the method of Yoshimoto and Tsuru (Yoshimoto, T. and Tsuru, D., Agr. Biol. Chem. Vol. 42, 2417, 1978). The corresponding number of test tubes to the number of the compounds to be tested were prepared and 2.5 mM Z-glycyl-proline-β-naphthylamide (0.25 ml), 0.1 M phosphate buffer (pH 7.0, 0.99 ml) and a solution of one of the peptides of the invention (0.1 ml) were placed in each test tube and warmed at 37° C. for 3 minutes. 0.1 ml of solution of propylendopeptidase (0.2 unit/ml) was added to each test tube. After reaction at 35° C. for 10 minutes, 1 M acetate buffer containing Triton X-100 (pH 4.0) was added to a final concentration of 10% and after the mixture was left to stand at room temperature for 15 minutes the absorbance (a) at 410 nm was measured.
The above-mentioned procedure was followed in the same manner but using buffers only in place of the solution of each compound of the invention, and the absorbance (b) was measured.

The subject of test [1] is scopolamine-induced amnesia. In words: step-down passive avoidance test, anti-amnestic activity on scopolamine-induced amnesia. It is filed as in vivo, male rats of Wister strain. Particulars: scopolamine 0.5 mg/kg i.p., retention 24 hours after acquisition, relative to scopolamine-treated group. An excerpt:
A step-down passive avoidance test on rats was used as the method of assay for anti-amnestic activity to estimate the preventive effect of prolylendopeptidase inhibitors on scopolamine-induced amnesia. This method of assay involved application of electric shocks to animals upon their stepping down on a grid floor to see whether they have learned that such shocks can be avoided by staying on a platform. A passive avoidance test chamber used in this experiment was comprised of an electrifiable grid floor (20 cm in length and 22 cm in width) and a platform (20 cm in length, 15 cm in width and 5 cm in height) placed at the right back corner thereof.
5-Weeks-old male rats of Wister strain weighing 100-150 g (purchased from Japan Clea Co., Ltd.) were used in the test.
Each test compound used in the doses indicated in Tables 2-3 was dissolved or suspended in 4% gum arabic-containing distilled water (1 ml) and administered p.o. one hour before the commencement of acquisition trial. In addition, scopolamine hydrobromide dissolved in saline (0.5 ml) was intraperitoneally administered in a dose of 0.5 mg/kg 30 minutes before the acquisition trial to prepare experimental animal models of amnesia.
In the acquisition trial, the rat was placed on the platform in the test chamber and, when the animal stepped down on the grid floor, the electric current of 5.0 mA was immediately sent to the grid floor continuously until the animal went up on the platform If the rat having gone up on the platform stayed there for more than 30 seconds, the animal was regarded to have learned the situation and taken out of the test chamber. A total time of measurement in the acquisition trial was limited to 300 seconds as maximum, and the time elapsing until the rat learned the situation was measured. In order to avoid any significant difference in the rats, those which took more than 300 seconds for the learning were excluded from the experiment.
The retention trial was carried out 24 hours after the acquisition trial. In this trial, the rat was placed again on the platform in the test chamber, the time elapsing until the animal stepped down onto the grid floor (the step-down latency) was measured.
In each of these tables they are indicated as relative step-down latency, shown by each test compound-treated group in the retention trial, to step-down latency for scopolamine-treated group (i.e. test compound-treated group's step-down latency/scopolamine-treated group's step-down latency).

The next test deals with proline endopeptidase. The following applies: prior art; cited from earlier work.
For test [2] the following is noted: prior art; cited from earlier work.
The mark [3] stands for this setting: Table 2, 5 mg/kg p.o., **p < 0.01 (Mann-Whitney).

The structures appear in SMILES notation. Residues, ends and D or L forms follow the SMILES beside them. *: point of attachment. Cbz = O=C(OCc1ccccc1)*

Sequence of prolylendopeptidase (P27028 21-705): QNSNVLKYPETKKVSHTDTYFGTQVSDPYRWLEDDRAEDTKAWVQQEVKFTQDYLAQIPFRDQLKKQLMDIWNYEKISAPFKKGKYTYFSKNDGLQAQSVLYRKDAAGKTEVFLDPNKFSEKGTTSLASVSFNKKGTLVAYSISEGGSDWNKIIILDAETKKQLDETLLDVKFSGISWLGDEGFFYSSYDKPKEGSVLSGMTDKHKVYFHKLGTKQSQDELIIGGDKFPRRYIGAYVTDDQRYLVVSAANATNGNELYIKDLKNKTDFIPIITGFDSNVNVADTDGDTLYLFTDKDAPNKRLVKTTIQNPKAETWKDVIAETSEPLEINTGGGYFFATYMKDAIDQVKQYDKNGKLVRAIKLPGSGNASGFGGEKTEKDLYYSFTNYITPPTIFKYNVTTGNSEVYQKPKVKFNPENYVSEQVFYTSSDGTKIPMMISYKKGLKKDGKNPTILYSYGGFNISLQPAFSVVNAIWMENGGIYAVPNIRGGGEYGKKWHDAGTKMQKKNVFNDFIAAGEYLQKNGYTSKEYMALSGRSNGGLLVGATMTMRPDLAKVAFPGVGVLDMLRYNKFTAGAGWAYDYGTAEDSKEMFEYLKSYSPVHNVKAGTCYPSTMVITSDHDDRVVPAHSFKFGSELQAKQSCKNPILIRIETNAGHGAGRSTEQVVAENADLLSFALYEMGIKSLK

As a reminder, the Ki is a dissociation constant, usually derived from enzyme kinetics or from competition with a known ligand. `CCOC(OCC)[C@@H]1CCCN1C(=O)CN(C)C(=O)CCC(=O)O` [Example 14, N-succinyl-sarcosyl-L-prolinal diethyl acetal]: the Ki on prolylendopeptidase turned out to be 1000 µM.

In the case of `CCOC(OCC)[C@@H]1CCCN1C(=O)[C@@H]1CCCN1C(=O)CCC(=O)O` [Example 12, N-succinyl-L-prolyl-L-prolinal diethyl acetal], the Ki on prolylendopeptidase came out at 370 µM.

Take `CCOC(OCC)[C@@H]1CCCN1C(=O)[C@@H]1CCC(=O)N1C(=O)CCC(=O)O` [Example 16, N-succinyl-L-pyroglutamyl-L-prolinal diethyl acetal]: the Ki at prolylendopeptidase stood at 1000 µM.

For `CCOC(OCC)[C@@H]1CCCN1C(=O)[C@@H]1CCCN1C(=O)OCc1ccccc1` [Example 8, N-benzyloxycarbonyl-L-prolyl-L-prolinal diethyl acetal], the “Relative step-down latency in retention trial (mean ± S.E.)” value (shortened to “Relative step-down latency”) in test [1] (Table 2, 1 mg/kg p.o.) is reported as 2.0 ± 0.5; in test [1] (setting [3]), 0.9 ± 0.2; in test [1] (Table 2, 25 mg/kg p.o.) it was 1.2 ± 0.3; in test [1] (Table 2, 50 mg/kg p.o.), 0.7 ± 0.3; in test [1] (Table 2, 100 mg/kg p.o.), 0.6 ± 0.3. The inhibition constant (Ki) at prolylendopeptidase is 2.2 µM.

On to `COc1ccc(C(=O)N2CCCC2=O)cc1` [aniracetam], for which the “Relative step-down latency” value in test [1] (Table 3, 12.5 mg/kg p.o.) came out at 1.1 ± 0.4; in test [1] (Table 3, 25 mg/kg p.o.), 1.6 ± 0.6; in test [1] (Table 3, 50 mg/kg p.o., *p < 0.05 (Mann-Whitney)) it was 2.3 ± 0.6; in test [1] (Table 3, 100 mg/kg p.o.), 0.7 ± 0.3.

Regarding `O=C[C@@H]1CCCN1C(=O)[C@@H]1CCCN1C(=O)OCc1ccccc1` [ZPP, Benzyloxycarbonyl-L-prolyl-L-prolinal] (Cbz-Pro-Pro-aldehyde), the “Relative step-down latency” value came to 2.8 ± 1.3 in test [1] (Table 2, 1 mg/kg p.o.); 8.5 ± 1.6 in test [1] (setting [3]); 1.4 ± 0.8 in test [1] (Table 2, 25 mg/kg p.o.); 0.5 ± 0.1 in test [1] (Table 2, 50 mg/kg p.o.); 1.3 ± 0.8 in test [1] (Table 2, 100 mg/kg p.o.). For the same molecule, in the test on proline endopeptidase, the “inhibitory activity to proline endopeptidase” value is reported as “inhibitory activity to proline endopeptidase”. In test [2], the anti-amnestic action result is “anti-amnestic action”.
